Series [1] concerns B16-F10 cells. As to the kind of experiment: Delivery of calcein to B16-F10 cells with or without electroporation, spectrofluorometric reading of cell lysate. The class given is cell-based, mouse. Here is the method: The effects of salicylic acid (“SA”) on the delivery of calcein to B16-F10 cells using electroporation was studied. Three identical experiments were carried out. […] All cells were exposed to 120 μM calcein. In addition, cells in some samples were exposed to one of three different concentrations of salicyclic acid (1 mM, 5 mM, or 10 mM) with pH values of 6.70, 6.32, and 3.85, respectively. Pulses with one of four different field strengths were also applied (500, 750, 1000, or 1385 V/cm) to certain samples. Salicyclic acid concentration and field strength were experimental variables; however, some cells were not exposed to applied fields or salicyclic acid for comparison/control purposes.
Delivery of calcein using aspirin (acetylsalicylic acid or “ASA”) was studied. […] The same range of pulsing conditions was used and the variables were identical for the sample treatment.
Calcein delivery by electroporation using acetic acid (“AA”) as an effector was studied. The set of 3 replicate experiments included three concentrations of AA, each with a different pH (4.40, 5.36, or 6.42). The pH values of the three solutions of acetic acid were matched to those of ASA for the purpose of determining if AA is the derivative in ASA that enhances the delivery of calcein. The three concentrations of the AA solutions in PBS were similar, which was about 0.15%, and varied slightly in order to establish the desired pH value. In addition, one of three electric field strengths were applied to cells (500, 750. or 1000 V/cm). Some cells were not exposed to applied fields or any concentration of AA for purposes of comparison and control.
B16-F10 mouse melanoma cells (ATCC#:CRL-6475) were obtained and grown in McCoy's Media (Cellgro Mediatech, Inc., Herndon. VA), adjusted to contain 10% fetal bovine serum (Cellgro Mediatech, Inc.) and (25 mg) gentamicin 50 mg/mL (Mediatech, Inc.) and were incubated in 5% CO2 at 37° C. Serum was essential for many reasons. It provided hormonal factors that stimulated cell growth and function. It also contains essential proteins, amino acids, minerals, and lipids. Gentamicin is an antibiotic used as a preventative measure to help reduce microbial growth and contamination.
Cells were prepared for experiments by first harvesting by trypsinization and then washing 3 times by centrifugation. Cells were centrifuged (5810R, Eppendorf, Westbury, N.Y.) at 220× g for 5 minutes at 37° C. and resuspended in approximately 2.5 ml of PBS for each wash. A sample of cells was then diluted in 0.9% sodium chloride (APP, Schaumburg, Ill.) and 0.4% trypan blue stain (Cellgro Mediatech, Inc.). Trypan blue is an indicator in which the membranes of non-viable cells are penetrated and can be distinguished from the viable cells. Using a hemacytometer (Hausser Scientific, Horsham, Pa.), the viable and nonviable cells were counted. The number of cells per milliliter was computed by multiplying the number of cells counted per square millimeter×the dilution (when used)×10,000 (conversion factor).
Experiments were conducted using 48-well polystyrene tissue culture plates (BD Falcon. Franklin Lakes, N.J.). Each well held approximately 1.4 ml of liquid with a surface area of 0.75 cm^2. The depth and diameter of each well was 18 mm and 10 mm, respectively.
Under aseptic conditions, 150μl of the sterile gelatin solution was added to each well and let stand for 1 hour. The gelatin was then aspirated from each of the wells and air dried for 5 minutes. 500μl of McCoy's Media was added to the treated wells in addition to 7.5×10^4 viable cells and incubated at 37° C. for 18 hours before treatment.
The electrode shown in FIG. 2 was specially designed for all experimentation in these studies and was similar to the design mentioned above. The electrode consisted of 6 stainless steel electrodes, equally spaced at 60° intervals around a 0.7 cm diameter circle.

Series [2] relates to B16-F10 cells. As to conditions: mouse, pH 4.4.
Protocol: The trypan blue test was used to determine membrane integrity. Trypan blue dye will only penetrate into cells that have porous membranes. […] The protocol used was similar to the methods described for the delivery of calcein. After one hour of exposure at 37° the cells were washed three times with 500 μl aliquots of PBS. Liquid from the last wash was carefully aspirated, and then filled with 500μl of growth media.
For the purpose of this study, optimal testing conditions were used to treat B16-F10 cells to conclude the extent of reversible permeation.
Due to the large surface area of the wells, the cells were physically counted by observing 7 out of 21 fields of view along the horizontal diameter of each well at a magnification of 400× (see FIG. 5). The recovery of the membranes after exposure to each treating condition was expressed as a percentage of live cells remaining after each hour.
In order to distinguish the viable cells from the dead, a 0.4% trypan blue solution in PBS was used. 150 μl of the solution was added to each well for 1 minute, and then the cells were counted using the described method. Each test condition was studied at 1 hour intervals ranging from 1 hour to 4 hours. In addition, membrane recovery was examined 24 hours post treatment.

Consider three compounds from US20070122908A1, “Molecular Delivery to Cells Using Aspirin-Related Compounds” (UNIVERSITY OF SOUTH FLORIDA, priority 2005, published 2007).

Take `O=C(O)c1ccccc1O` [SA, salicylic acid]: in the series on B16-F10 cells [1] (1, 5 or 10 mM SA (pH 6.70, 6.32, 3.85), 120 μM calcein, no applied electric field), the “calcein delivery compared to samples exposed to calcein alone” value is reported as “did not augment the delivery”. In the series with B16-F10 cells [1] (1, 5 or 10 mM SA, 120 μM calcein, electrical pulses 500-1385 V/cm), the “fluorescent magnitude compared to samples treated with calcein and pulses (no salicylic acid)” value is “not significantly higher”.

Regarding `CC(=O)O` [AA, acetic acid], the “fluorescence magnitude compared to samples not exposed to AA” value in the series with B16-F10 cells [1] (AA about 0.15% in PBS, pH 5.36 or 6.42, with or without pulses) is given as “failed to show a significant increase”. Also, the “fluorescent data compared to AA alone (no pulses)” value in the series on B16-F10 cells [1] (AA lowest pH solution (pH 4.40) in combination with electric fields) is recorded as “even higher”. The mean fluorescence magnitude in the series on B16-F10 cells [1] (AA pH 4.40, 500 V/cm) is given as 12.77; in the series with B16-F10 cells [1] (AA pH 4.40 alone, no pulses), 1.04. The “increase in fluorescence magnitude vs samples not exposed to AA at same field” value in the series on B16-F10 cells [1] (AA pH 4.40, 500 V/cm, p<0.0001) is 3 fold; with B16-F10 cells [1] (AA pH 4.40, 750 V/cm, p=0.0002), 2.25 fold; with B16-F10 cells [1] (AA pH 4.40, 1000 V/cm, p<0.0001) it was 3.5 fold. Also, the “increase in mean fluorescence vs control (no AA or pulses)” value in the series on B16-F10 cells [1] (AA pH 4.40 alone, no pulses) is recorded as 8.2 fold. In addition, the “decline in the number of cells with intact membranes” value in the series with B16-F10 cells [2] (1 h) worked out at 17%. Besides, in the series on B16-F10 cells [2] (24 h), the “cells that excluded trypan blue dye” value was 86%. For the same compound, the “cells with intact membranes” value with B16-F10 cells [2] (24 h) stood at 90%. Besides, the average membrane integrity in the series on B16-F10 cells [2] was 80-95%.

For `CC(=O)Oc1ccccc1C(=O)O` [ASA, acetylsalicylic acid], the “fluorescence magnitude compared to calcein alone (no ASA)” value in the series with B16-F10 cells [1] (1 mM or 5 mM ASA alone (pH 6.39, 5.40), no pulses) is recorded as “did not result in a significant increase”. The “increase in fluorescence magnitude relative to calcein at same field (no ASA)” value with B16-F10 cells [1] (10 mM ASA, 500 V/cm, p<0.0001) is given as 3.7 fold; with B16-F10 cells [1] (10 mM ASA, 750 V/cm, p 0.0011), 3.82 fold; in the series on B16-F10 cells [1] (10 mM ASA, 1000 V/cm, p 0.0014), 3.57 fold; in the series with B16-F10 cells [1] (10 mM ASA, 1385 V/cm, p 0.0066), 3.18 fold. Also, the “increase in internalized calcein vs control (calcein, no ASA or pulses)” value with B16-F10 cells [1] (10 mM ASA, no pulses, p<0.0001) is recorded as 5 fold. Moreover, in the series with B16-F10 cells [1] (1 and 5 mM ASA, with electric fields), the “mean fluorescence magnitude compared to samples exposed to electric fields alone (no ASA)” value is “not significantly different”. For the same compound, the average fluorescent magnitude in the series with B16-F10 cells [1] (calcein in 10 mM ASA (pH 4.40), no pulses) is 4.28 (SEM=0.63).
